The record followed here is paper PMC8274517, “Diaryl azo derivatives as anti-diabetic and antimicrobial agents: synthesis, in vitro, kinetic and docking studies” (Journal of Enzyme Inhibition and Medicinal Chemistry, 2021).

Values after ≈ are worked out from the molar mass of the structure shown.

Test [1] deals with E. coli. The test is described as follows: Antibacterial activity, minimum inhibitory concentration. Format: cell-based. Details: key: R: resistant; S: sensitive. On the procedure:
(§1) The prepared azo derivatives were screened for their antibacterial activity against six bacterial strains obtained from hospital isolates i.e. gram positive (S. aureus, S. aureus (DR)) and gram-negative (E. coli, P. aeruginosa, P. aeruginosa (DR), P. vulgaris). All the strains were confirmed by biochemical identification and drug susceptibility methods. The antibacterial evaluation was done by agar disc diffusion method[39]^,[40] and MIC was determined. In summary, a 48-h old inoculum having ∼0.48 OD600, of the above-mentioned bacterial strains was spread on the solidified trypticase soy agar media and Whatman no. 1 filter paper discs (5 mm in diameter) soaked with the title compounds (10 µL/disc of 10 mg/mL) were placed on the plates. Ampicillin and moxifloxacin were used as positive controls and DMSO as negative control respectively.

Test [2] deals with P. aeruginosa (DS). The test is described as above. The test is classed as cell-based. Also noted: key: R: resistant; S: sensitive. The procedure: as §1
For test [3], the system named is P. vulgaris. The test is described as above. Format: cell-based. Details: key: R: resistant; S: sensitive. On the procedure:
as §1

Test [4] concerns S. aureus (DS). The test is described as above. Format: cell-based. Details: key: R: resistant; S: sensitive. On the procedure: as §1
Test [5] relates to screened pathogens (S. aureus, P. aeruginosa, E. coli and P. vulgaris). In words: Antibacterial activity, average MIC over screened pathogens. The test is classed as cell-based. On the procedure: as §1, with “All the strains were confirmed by biochemical identification and drug susceptibility methods.” left out, “plates.” for “plates. Ampicillin and moxifloxacin were used as positive controls and DMSO as negative control respectively.”

The subject of test [6] is α-glucosidase. In words: In vitro α-glucosidase inhibition assay (pNPG substrate). The settings on record: for IC50: means ± SEM of triplicate. Format: biochemical, Saccharomyces Cerevisiae. The procedure: The α-glucosidase inhibition assay was performed as described previously. In summary, the stock solution of the enzyme from Saccharomyces Cerevisiae (0.2 U/mL) was prepared in 0.05 M sodium phosphate buffer pH 6.8. […] After incubation, 10 µL of the substrate, p-nitrophenyl α-D-glucopyranoside (pNPG, 5 mM solution in 0.05 M phosphate buffer) was added to the aboveprepared mixture and incubated again under the same experimental conditions. The reaction was stopped with the addition of 0.1 M Na2CO3 and OD405 was taken by a 96-well ELISA reader. The experiment was performed in triplicate.

The test system of test [7] is P. aeruginosa (DR). The test is described as follows: Antibacterial activity, minimum inhibitory concentration. Format: cell-based. Also noted: key: R: resistant; S: sensitive. The procedure: as §1
Test [8] has as its system S. aureus (DR). Described as above. Also noted: key: R: resistant; S: sensitive. Format: cell-based. On the procedure: as §1

On to `CC1(C)S[C@@H]2[C@H](NC(=O)[C@H](N)c3ccccc3)C(=O)N2[C@H]1C(=O)O` [Ampicillin, reference compound], for which the “Minimum inhibitory concentration: sensitive/resistant” value in test [1] (125 µg/200 µL), in test [1] (250 µg/200 µL), in test [2] (125 µg/200 µL), in test [2] (250 µg/200 µL), in test [3] (125 µg/200 µL) and in test [3] (250 µg/200 µL) was “S” throughout. Also, the “Minimum inhibitory concentration: sensitive/resistant” value in test [4] (125 µg/200 µL) and in test [4] (250 µg/200 µL) was “S” throughout. For the same compound, in test [5], the “MIC (average value)” value was 62.5 µg/200 µL.
“(E)-4-(p-tolyldiazenyl)benzene-1,3-diol [TR-6]”: the “% Inhibition” value is recorded as 22% in test [6] (15.62 µg/mL), 38% in test [6] (31.2 µg/mL), 63% in test [6] (125 µg/mL) and 87% in test [6] (250 µg/mL). This compound also displayed an IC50 in test [6] of 53.7 ± 3.2 µg/mL. Besides, the “Minimum inhibitory concentration: sensitive/resistant” value in test [1] (125 µg/200 µL) is recorded as “R”; in test [1] (250 µg/200 µL), “S”; in test [7] (125 µg/200 µL), “R”; in test [7] (250 µg/200 µL), “R”; in test [2] (125 µg/200 µL), “S”; in test [2] (250 µg/200 µL) it was “S”. Further, the “Minimum inhibitory concentration: sensitive/resistant” value in test [3] (125 µg/200 µL), in test [3] (250 µg/200 µL), in test [8] (125 µg/200 µL), in test [8] (250 µg/200 µL), in test [4] (125 µg/200 µL) and in test [4] (250 µg/200 µL) was “S” throughout. For the same compound, the “MIC (average value)” value in test [5] came to 125 µg/200 µL.
As to `COc1c(N2C[C@@H]3CCCN[C@@H]3C2)c(F)cc2c(=O)c(C(=O)O)cn(C3CC3)c12` [Moxifloxacin, reference compound], the “Minimum inhibitory concentration: sensitive/resistant” value in test [7] (125 µg/200 µL), in test [7] (250 µg/200 µL), in test [8] (125 µg/200 µL) and in test [8] (250 µg/200 µL) was “S” in each case.
As to `O=[N+]([O-])c1ccc(/N=N/c2ccc(O)c3ccccc23)cc1` [TR-2, (E)-4-((4-nitrophenyl)diazenyl)naphthalen-1-ol], the “% Inhibition” value in test [6] (15.62 µg/mL) is recorded as 16%; in test [6] (31.2 µg/mL) it was 30%; in test [6] (125 µg/mL), 55%; in test [6] (250 µg/mL) it was 60%. This compound displayed a half-maximal inhibitory concentration (IC50) in test [6] of 110.2 ± 7.8 µg/mL (≈ 376 µM). For the same compound, the “Minimum inhibitory concentration: sensitive/resistant” value is on record as “R” in test [1] (125 µg/200 µL); “S” in test [1] (250 µg/200 µL); “R” in test [7] (125 µg/200 µL); “R” in test [7] (250 µg/200 µL); “R” in test [2] (125 µg/200 µL); “S” in test [2] (250 µg/200 µL). In addition, the “Minimum inhibitory concentration: sensitive/resistant” value is listed as “R” in test [3] (125 µg/200 µL); “R” in test [3] (250 µg/200 µL); “S” in test [8] (125 µg/200 µL); “S” in test [8] (250 µg/200 µL); “R” in test [4] (125 µg/200 µL); “R” in test [4] (250 µg/200 µL).
For the compound “(E)-4-(p-tolyldiazenyl)naphthalen-1-ol [TR-4]”, the “% Inhibition” value in test [6] (15.62 µg/mL) came out at 7%; in test [6] (31.2 µg/mL) it was 13%; in test [6] (125 µg/mL) it was 35%; in test [6] (250 µg/mL), 43%. In addition, the “Minimum inhibitory concentration: sensitive/resistant” value in test [1] (125 µg/200 µL) is given as “R”; in test [1] (250 µg/200 µL), “R”; in test [7] (125 µg/200 µL), “S”; in test [7] (250 µg/200 µL), “S”; in test [2] (125 µg/200 µL), “S”; in test [2] (250 µg/200 µL) it was “S”. The “Minimum inhibitory concentration: sensitive/resistant” value in test [3] (125 µg/200 µL), in test [3] (250 µg/200 µL), in test [8] (125 µg/200 µL), in test [8] (250 µg/200 µL), in test [4] (125 µg/200 µL) and in test [4] (250 µg/200 µL) was “S” in each case. In addition, the “MIC (average value)” value in test [5] was found to be 125 µg/200 µL.
In the case of “4-((2-chloropyridin-3-yl)diazenyl)naphthalen-2-ol [TR-9]”, the “% Inhibition” value in test [6] (15.62 µg/mL) is 22%; in test [6] (31.2 µg/mL), 39%; in test [6] (125 µg/mL) it was 63%; in test [6] (250 µg/mL), 78%. The IC50 in test [6] was 54.4 ± 3.3 µg/mL. Besides, the “Minimum inhibitory concentration: sensitive/resistant” value in test [1] (125 µg/200 µL) is listed as “R”; in test [1] (250 µg/200 µL) it was “R”; in test [7] (125 µg/200 µL), “R”; in test [7] (250 µg/200 µL), “R”; in test [2] (125 µg/200 µL) it was “R”; in test [2] (250 µg/200 µL) it was “S”. Further, the “Minimum inhibitory concentration: sensitive/resistant” value is “R” in test [3] (125 µg/200 µL); “R” in test [3] (250 µg/200 µL); “S” in test [8] (125 µg/200 µL); “S” in test [8] (250 µg/200 µL); “R” in test [4] (125 µg/200 µL); “R” in test [4] (250 µg/200 µL).
For `C[C@H]1O[C@H](O[C@H]2[C@H](O)[C@@H](O)[C@@H](O[C@H]3[C@H](O)[C@@H](O)C(O)O[C@@H]3CO)O[C@@H]2CO)[C@H](O)[C@@H](O)[C@@H]1N[C@H]1C=C(CO)[C@@H](O)[C@H](O)[C@H]1O` (some centres unmarked) [Acarbose, reference compound], the “% Inhibition” value in test [6] (15.62 µg/mL) stood at 40%; in test [6] (31.2 µg/mL) it was 62%; in test [6] (125 µg/mL) it was 85%; in test [6] (250 µg/mL), 92%.

By % Inhibition is commonly meant the change of the read-out against control, counted positive when it falls. A word on the IC50: it is the point on the concentration scale where inhibition reaches its midpoint.
